Measurements taken from US6469004B1, “Benzoheterocycles and their uses as MEK inhibitors” (Warner-Lambert Company, priority 1999, dated 2002).
Structures can show the parent of a compound that is named as a salt. Where two headings read alike, the source gives them in different places.

What was measured:
[1] = test system: colon 26 cells; experiment: colon 26 cells IC50 (whole cell assay); assay type: cell-based; conditions: Mus musculus
Description: Whole Cell MAP Kinase Assay
To determine if compounds block activation of MAP kinase in whole cells, the following protocol is used. Cells are plated in multi-well plates and grown to confluence. Cells are serum-deprived overnight. […] After a 5-minute treatment with the growth factor, cells are washed with PBS, and lysed in a buffer consisting of 70 mM NaCl, 10 mM HEPES (pH 7.4), 50 mM glycerol phosphate, and 1% Triton X-100. Lysates are clarified by centrifugation at 13,000×g for 10 minutes. Five to fifteen micrograms of protein from the resulting supernatants are subjected to SDS/PAGE and Western blotting for phosphorylated MAP kinase levels.

[2] = target: GST-MEK (p45MEK) / GST-MAPK (p44MAP kinase) cascade (APK) (Homo sapiens, UniProt Q02750); experiment: APK IC50 (cascade assay for inhibitors of the MAP kinase pathway); assay type: biochemical
Description: Cascade Assay for Inhibitors of the MAP Kinase Pathway
Incorporation of ^32P into myelin basic protein (MBP) is assayed in the presence of a glutathione S-transferase fusion protein containing p44MAP kinase (GST-MAPK) and a glutathione S-transferase fusion protein containing p45MEK (GST-MEK). The assay solution contains 20 mM HEPES, pH 7.4, 10 mM MgCl2, 1 mM EGTA, 50 μM [γ-^32P]ATP, 10 μg GST-MEK, 0.5 μg GST-MAPK and 40 μg MBP in a final volume of 100 μL. Reactions are stopped after 20 minutes by addition of trichloroacetic acid and filtered through a GFIC filter mat. ^32P retained on the filter mat is determined using a 120S Betaplate. Compounds are assessed at 10 μM for ability to inhibit incorporation of 32P.
To ascertain whether compounds are inhibiting GST-MEK or GST MAPK, two additional protocols are employed. In the first protocol, compounds are added to tubes containing GST-MEK, followed by addition of GST-MAPK, MBP and [γ-^32P]ATP. In the second protocol, compounds are added to tubes containing both GST-MEK and GST-MAPK, followed by MBP and [γ-^32P]ATP.
Compounds that show activity in both protocols are scored as MAPK inhibitors, while compounds showing activity in only the first protocol are scored as MEK inhibitors.

Chain of GST-MEK (p45MEK) / GST-MAPK (p44MAP kinase) cascade (APK) (Q02750 whole entry): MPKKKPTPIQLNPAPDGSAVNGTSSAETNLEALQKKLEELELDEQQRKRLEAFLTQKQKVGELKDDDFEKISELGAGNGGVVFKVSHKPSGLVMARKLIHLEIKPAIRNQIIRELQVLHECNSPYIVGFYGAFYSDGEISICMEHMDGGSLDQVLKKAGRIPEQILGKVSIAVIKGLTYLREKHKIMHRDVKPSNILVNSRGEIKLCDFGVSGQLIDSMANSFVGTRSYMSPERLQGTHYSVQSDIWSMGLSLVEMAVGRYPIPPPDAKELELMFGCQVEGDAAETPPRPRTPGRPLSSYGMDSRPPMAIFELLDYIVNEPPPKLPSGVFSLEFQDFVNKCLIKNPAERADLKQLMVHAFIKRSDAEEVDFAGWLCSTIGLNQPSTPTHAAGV

melting point	IC50 ([1]; read-out: colon 26 cells, IC50)	IC50 [2]	IC50 ([1]; read-out: Colon 26 Cells, 1 Hour Pretreatment, IC50)	SMILES
168 to 172 °C	–	–	–	Cc1cc(I)ccc1Nc1c(C(=O)NOCC2CC2)cc2nc[nH]c2c1F (as salt: salt) [PD 254552, 7-fluoro-6-(4-iodo-2-methyl-phenylamino)-1H-benzoimidazole-5-carboxylic acid cyclopropylmethoxy-amide]
247 to 248 °C (dec.)	> 10000 nM	–	–	Cc1cc(I)ccc1Nc1c(C(=O)O)cc2nc[nH]c2c1F [PD 205293, 7-fluoro-6-(4-iodo-2-methyl-phenylamino)-1H-benzoimidazole-5-carboxylic acid]
–	–	120 nM	–	Cc1cc(I)ccc1Nc1c(C(=O)Oc2c(F)c(F)c(F)c(F)c2F)cc2nc[nH]c2c1F [PD 254551, 7-fluoro-6-(4-iodo-2-methyl-phenylamino)-1H-benzoimidazole-5-carboxylic acid pentafluorophenyl ester]
–	–	< 10 nM	20 nM	Cc1cc(I)ccc1Nc1c(C(=O)NOCC2CC2)cc2nc[nH]c2c1F [PD 254552, 7-fluoro-6-(4-iodo-2-methyl-phenylamino)-1H-benzoimidazole-5-carboxylic acid cyclopropylmethoxy-amide]
